Experimental data taken from article PMC3258152 (Nucleic Acids Research, 2011).

Target: T1, CkoPE (Candidatus Korarchaeum cryptofilum, UniProt B1L4V6)
T1 sequence (B1L4V6 1-117): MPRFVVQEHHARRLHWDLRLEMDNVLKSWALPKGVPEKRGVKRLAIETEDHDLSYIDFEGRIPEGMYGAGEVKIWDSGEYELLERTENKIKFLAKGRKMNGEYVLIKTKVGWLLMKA
Experiment: […]'-resection of […]-labelled D22R2 single strand, urea-PAGE
Assay type: biochemical

- IC50: ~50 mM
Compound: O=P(O)(O)O [phosphate]
